Experimental findings from US6627732B1, “Glutathione derivatives and their dosage forms” (Teijin Limited, priority 1998, dated 2003) are described below.

For data set [1], the system named is rabbit models of suppressed hematopoietic function by CP administration. As to the kind of experiment: Recovery of neutrophil counts in rabbit models of suppressed hematopoietic function by cyclophosphamide (Example 29). The format is in vivo. The following applies: CP rabbits; 20 mg/kg-body weight/day, days 3 to 7; Example 4 in fat emulsion, Comparative Example 1 in HPCD solution. The text has this:
Regarding the effect of promoting the recovery of neutrophil counts in rabbit models of suppressed hematopoietic function by cyclophosphamide (hereinafter referred to as CP) administration, the pharmaceutical composition comprising the fat emulsion containing the glutathione derivative of Example 4 of the present invention and the pharmaceutical composition of the conventional technology of Comparative Example 1 were compared.
(1) Animals used and the keeping condition: Male Japanese white rabbits, 17-week old, (Kbl:JW) purchased from Kitayama Labes Co., Ltd. were used. The animal feed (LRC4, manufactured by Oriental Yeast Co., Ltd.) and drinking water (well water treated with 0.4±0.2 ppm hypochlorous acid) were given ad libitum during the period of the experiment. The animals were each housed in a hanging-type rat cage (manufactured by Nippon Cage K.K.) and kept at a temperature of 24±2° C. and a humidity of 55±5%.
(2) Creation of rabbit models of suppressed hematopoietic function by CP administration; CP (manufactured by Wako Pure Chemicals Industries, Ltd.) was intravenously administered at 60 mg/kg-body weight/day (dosage volume was 2 ml/kg-body weight) to rabbits described in (1) on day 1 and 2 of the experiment. […] Blood was also drawn before the administration on day 1 of the experiment, and the value determined for the blood was used as the pre-administration value. […]

The test system of a further data set is swine liver esterase. As to the kind of experiment: Decomposition by swine liver esterase with and without fat emulsion (Example 22). The class given is in vitro ADME. Conditions: for Decomposition rate constant in the absence of the fat emulsion: alcohol solution with physiological saline; for Decomposition rate constant in the presence of the fat emulsion: fat emulsion added at 15 (v/v)%. The method, then: The glutathione derivative combined with a fat emulsion was incubated with swine liver esterase to compare the resistance to decomposition.
Thereupon, the concentration of the glutathione derivatives of Comparative Examples 1 and 2 in the fat emulsion were each adjusted to 1 mg/ml.
After incubation for a fixed time in a similar manner to that in Example 19, the content of the glutathione derivative was quantitated by HPLC. As the control experiment, an alcohol solution of the glutathione derivative of Example 4, Comparative Example 1 or 2 was added to the esterase reaction mixture together with physiological saline for adjustment of the total volume, and incubated similarly and analyzed by HPLC.
(3) Since a linear disappearance curve was observed as in Example 19, each decomposition rate constant was determined and was compared, which was summarized in Table 6.

Data set [2] is described as follows: Pharmacokinetics after intravenous administration to rabbits, 2-compartment model (Example 25). The class given is in vivo, rabbit. Conditions: iv auricular vein 2 ml/kg, fat emulsion (Comparative Ex. 1: HPCD/glucose solution). An excerpt:
For the glutathione derivative of the present invention having a long-chain ester having 12 carbons or more and the glutathione derivatives of the conventional technology of Comparative Examples 1 and 2, kinetics in the blood were compared in rabbits that are a species having allow esterase activity in the blood.
(1) Male Japanese white rabbits, 12-week old or older, were purchased from Ichikawaya, and those rabbits that became 15-week old or older and whose body weight reached about 3 kg were used for the experiment. During the period up to the experiment, the animals were allowed free access to the animal feed and drinking water and were kept at a temperature of 24±2° C. and a humidity of 55±5%.
(2) The glutathione derivative having a long-chain ester of 12 carbons or more and the glutathione derivative of Comparative Example 2 were prepared at 20-200 mg/ml in a mixture of ethanol or ethanol:benzyl alcohol, which was mixed with the fat emulsion just prior to use, and was filtered with a 1.2 μm filter to obtain a liquid for intravenous administration. On the other hand, the glutathione derivative of Comparative Example 1 was dissolved in an aqueous solution of 6%-hydroxypropyl-β-cyclodextrin/5%-glucose at 15 mg/ml to obtain an administration liquid.
(3) The administration liquid of the glutathione derivative obtained in (2) at a dose of 2 ml/kg was rapidly infused into the left auricular vein of the rabbits under no anesthesia and under restraint at a rate of 1 ml/min. Each glutathione derivative was given to three or more rabbits. At 5, 10, 15, 30, 60, 120, and 240 minutes after the completion of the administration, 1 ml of the blood was drawn from the right auricular vein in the presence of heparin, which was immediately cooled on ice. Plasma was obtained by centrifuging the blood, 1-2 volume parts of acetonitrile was added to deproteinize the supernatant, which was filtered by a 0.5 μm filter. The supernatant of the filtrate was quantitated by HPLC.

In the case of `CCOC(=O)[C@@H](N)CCC(=O)N[C@@H](CSCc1ccccc1)C(=O)N[C@@H](C(=O)OCC)c1ccccc1.Cl` [Comparative Example 1, Glu(Cys(Bzl)-D-Phg-O(Et))-O(Et)hydrochloride, reference compound], the “Neutrophil counts compared to the negative control group” value in data set [1] was “no changes were observed”. In the data set with swine liver esterase, the “Ratio of decomposition rate constant (in the presence of the fat emulsion/physiological saline)” value was determined as 0.609, the “Decomposition rate constant in the absence of the fat emulsion” value was 1.206 × 10^−2 /unit/min and the “Decomposition rate constant in the presence of the fat emulsion” value is recorded as 7.343 × 10^−3 /unit/min. Also, in data set [2], the “Clearance per body weight” value was determined as 15.27 L/h/kg and the “Distribution volume per body weight of the central compartment” value (“Distribution volume per body weight” below) is recorded as 0.80 L/kg.

For the compound `CCCCCCCCOC(=O)[C@H](NC(=O)[C@H](CSCc1ccccc1)NC(=O)CC[C@H](N)C(=O)OCC)c1ccccc1.Cl` [Comparative Example 2, Glu(Cys(Bzl)-D-Phg-O(Octyl))-O(Et)hydrochloride, reference compound], in the data set on swine liver esterase, the “Ratio of decomposition rate constant (in the presence of the fat emulsion/physiological saline)” value was found to be 0.454, the “Decomposition rate constant in the absence of the fat emulsion” value is 3.638 × 10^−2 /unit/min and the “Decomposition rate constant in the presence of the fat emulsion” value was 1.650 × 10^−2 /unit/min. In data set [2], the “Clearance per body weight” value stood at 9.34 L/h/kg and the “Distribution volume per body weight” value is on record as 4.18 L/kg.

Take `CCCCCCCCCCCCCCCCOC(=O)[C@@H](N)CCC(=O)N[C@@H](CSCc1ccccc1)C(=O)N[C@@H](C(=O)OCC)c1ccccc1.Cl` [Example 4, Glu(Cys(Bzl)-D-Phg-OEt)-O(Hexadecyl)hydrochloride]: in data set [1], the “Neutrophil counts compared to the negative control group” value is on record as “statistically significant increase in neutrophil counts”. Also, in the data set with swine liver esterase, the “Ratio of decomposition rate constant (in the presence of the fat emulsion/physiological saline)” value is reported as 0.185, the “Decomposition rate constant in the absence of the fat emulsion” value is 1.100 × 10^−4 /unit/min and the “Decomposition rate constant in the presence of the fat emulsion” value is 2.033 × 10^−5 /unit/min. In addition, in data set [2], the “Clearance per body weight” value is 0.20 L/h/kg and the “Distribution volume per body weight” value is 0.06 L/kg.
